This assay has as its target T1, CaCYP51 D278N+G464S (Candida albicans, UniProt P10613, D278N/G464S).
T1 construct: made in house; host or cells: E. coli DH5α (pCWori+)
As to the kind of experiment: Azole ligand binding (type II difference spectra). The procedure: Studies of azole antifungal binding to 4 μM CaCYP51 proteins were performed as previously described ([53]) using quartz split cuvettes with a 4.5-mm light path. […] Azole antifungals were progressively titrated against the CaCYP51 proteins in 0.1 M Tris-HCl (pH 8.1) and 25% glycerol at 22°C, with equivalent volumes of dimethyl sulfoxide also being added to the CYP51-containing compartment of the reference cuvette. The absorbance difference spectra between 500 and 350 nm were determined after each incremental addition of azole, with binding saturation curves constructed from the change in the peak and trough absorbance (ΔApeak-trough) against the azole concentration. The dissociation constant (Kd) of the enzyme-azole complex for each azole was determined by nonlinear regression (Levenberg-Marquardt algorithm) using a rearrangement of the Morrison equation for tight ligand binding ([54], [55]). Tight binding is normally observed when the Kd for a ligand is similar to or lower than the concentration of the enzyme present ([56]). Where ligand binding was weak, the Michaelis-Menten equation was used to fit the data. Each binding determination was performed in triplicate. The chemical structures of the azole antifungals used in this study are shown in Fig. S5 in the supplemental material.

We go through one compound from PMC6496074, “The Evolution of Azole Resistance in Candida albicans Sterol 14α-Demethylase (CYP51) through Incremental Amino Acid Substitutions” (Antimicrobial Agents and Chemotherapy, 2019).

Structures are written as SMILES.

T1 sequence (P10613 whole entry, looked up, stated change not applied): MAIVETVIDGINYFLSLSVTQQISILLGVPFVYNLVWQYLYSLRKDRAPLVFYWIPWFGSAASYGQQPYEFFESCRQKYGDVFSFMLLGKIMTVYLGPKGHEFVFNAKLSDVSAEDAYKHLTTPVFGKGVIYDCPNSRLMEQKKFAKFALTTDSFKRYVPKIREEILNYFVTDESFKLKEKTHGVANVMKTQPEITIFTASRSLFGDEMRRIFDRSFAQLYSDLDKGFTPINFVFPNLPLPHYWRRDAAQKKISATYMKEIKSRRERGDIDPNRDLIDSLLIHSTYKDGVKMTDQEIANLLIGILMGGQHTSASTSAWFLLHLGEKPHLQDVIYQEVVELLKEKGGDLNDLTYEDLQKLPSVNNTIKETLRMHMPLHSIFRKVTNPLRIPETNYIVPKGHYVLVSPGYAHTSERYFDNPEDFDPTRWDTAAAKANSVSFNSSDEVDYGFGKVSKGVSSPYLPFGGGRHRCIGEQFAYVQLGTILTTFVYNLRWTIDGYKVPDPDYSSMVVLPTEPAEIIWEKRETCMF

For the compound `OC(Cn1cncn1)(Cn1cncn1)c1ccc(F)cc1F` [Fluconazole, fluconazole], the “apparent Kd, fold lower than wild-type enzyme” value was found to be 3 fold. Moreover, for the setting “4 μM protein, 22°C, ± standard deviation, triplicate, read-out: dissociation constant (Kd)”, the Kd (as a rule, a measure of binding affinity in units of concentration) is 15 ± 9 nM.
